# Results published in patent US10829520B2, “Beta-hairpin peptidomimetics” (POLYPHOR AG, priority 2015, dated 2020).
# Where a SMILES comes first, the peptide text is derived from it. Bridges are numbered along the chain shown (N, C = ends). Roman numbers before positions name the chains, in order. [ ]: non-standard residue; d: D form. Tle = CC(C)(C)[C@H](N)C(=O)O; dDab = NCC[C@@H](N)C(=O)O; Nle = CCCC[C@H](N)C(=O)O; Orn = NCCC[C@H](N)C(=O)O; Dab = NCC[C@H](N)C(=O)O; Dap = NC[C@H](N)C(=O)O; Aib = CC(C)(N)C(=O)O; Sar = CNCC(=O)O
# Tests used:
# Format in all cases: cell-based
# [1] = system: human red blood cells (hRBC); assay: Hemolysis of human red blood cells; conditions: red cells of human, 1 h
# Summary of the method: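 Each peptide was tested at a single concentration, 100 μg/mL. Erythrocytes (20% v/v) were incubated 1 h at 37° C. under shaking at 300 rpm, centrifuged, and released hemoglobin measured at OD540. Controls were PBS containing 0.001% acetic acid (0%) and Triton X-100 (100%).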
# [2] = system: Acinetobacter baumannii 872842; conditions: 872842
# [3] = system: Escherichia coli ATCC 25922; conditions: ATCC 25922
# Summary of the method: (§1)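 Peptide stocks (1 mg/mL, water) were diluted two-fold into MH-II broth with 0.002% P-80 and mixed with approx. 10^6 CFU/mL bacteria. Plates were read visually after 18-20 hours at 35° C, with MIC expressed in μg/mL per CLSI.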
# [4] = system: Klebsiella pneumoniae 968733; conditions: 968733
# [5] = system: Escherichia coli 926415; conditions: 926415
# [6] = system: Pseudomonas aeruginosa ATCC 27853; conditions: ATCC 27853
# Summary of the method: as §1
# [7] = system: Acinetobacter baumannii DSM 30008; conditions: DSM 30008
# Summary of the method: as §1
# [8] = system: Klebsiella pneumoniae SSI #3010; conditions: SSI #3010
# Summary of the method: as §1
SMILES,Hemolysis at 100 μg/mL ([1]; 100 μg/mL) [%],Acinetobacter baumannii 872842 MIC [2] [µg/mL],Escherichia coli ATCC 25922 MIC [3] [µg/mL],Klebsiella pneumoniae 968733 MIC [4] [µg/mL],Escherichia coli 926415 MIC [5] [µg/mL],Pseudomonas aeruginosa ATCC 27853 MIC [6] [µg/mL],Acinetobacter baumannii DSM 30008 MIC [7] [µg/mL],Klebsiella pneumoniae SSI #3010 MIC [8] [µg/mL],Hemolysis at 100 μg/mL [1]; 100 [%]
CC(C)C[C@@H]1NC(=O)[C@H](CCN)NC(=O)[C@H]2CCCN2C(=O)[C@H](CO)NC(=O)[C@H](C)NC(=O)[C@H](C(C)C)NC(=O)[C@@H](NC(=O)[C@@H](N)Cc2c[nH]c3ccccc23)CSSC[C@@H](C(=O)N[C@@H](CCN)C(=O)N[C@@H](CCN)C(=O)N[C@H](C(=O)N[C@@H](CCN)C(=O)N[C@H]2CCNC(=O)[C@H]([C@@H](C)O)NC(=O)[C@H](CCN)NC(=O)[C@H](CCN)NC(=O)[C@H](CC(C)C)NC(=O)[C@@H](CC(C)C)NC(=O)[C@H](CCN)NC2=O)[C@@H](C)O)NC(=O)[C@H](Cc2ccc(O)cc2)NC(=O)[C@H](CO)NC1=O [Ex. 127] (H-WCVAS[dP][Dab]LSYC[Dab][Dab]T[Dab][Dab][Dab][dL]L[Dab][Dab]T; disulfide 2-11; lactam 16-C),1,0.25,1,8,2,0.5,0.25,0.25,–
CC(C)C[C@@H]1NC(=O)[C@@H](CC(C)C)NC(=O)[C@H](CCN)NC(=O)[C@@H](NC(=O)[C@H](CCN)NC(=O)[C@@H](NC(=O)[C@H](CCN)NC(=O)CC[C@@H]2NC(=O)[C@H](CCN)NC(=O)[C@H](Cc3ccc(O)cc3)NC(=O)[C@H](CO)NC(=O)[C@H](CC(C)C)NC(=O)[C@@H]3CCCN3C(=O)[C@H]3CCCN3C(=O)[C@H](CO)NC(=O)[C@H]([C@@H](C)O)NC(=O)[C@H](C(C)C)NC(=O)[C@H](CCN)NC(=O)[C@H](Cc3c[nH]c4ccccc34)NC(=O)[C@H](CCN)NC(=O)[C@@H](CCN)NC2=O)[C@@H](C)O)CCNC(=O)[C@H]([C@@H](C)O)NC(=O)[C@H](CCN)NC(=O)[C@H](CCN)NC1=O [Ex. 92] (I: cyclo(W[Dab]VTS[dP]PLSY[Dab]E[dDab][Dab]) / II: [Dab]T[Dab][Dab][Dab][dL]L[Dab][Dab]T; amide I:12-II:N; lactam II:4-II:C),–,0.5,0.125,0.5,0.5,0.25,0.25,0.25,1
CC(C)C[C@@H]1NC(=O)[C@@H](CC(C)C)NC(=O)[C@H](CCN)NC(=O)[C@@H](NC(=O)[C@H](CCN)NC(=O)[C@@H](NC(=O)[C@H](CCN)NC(=O)CN(C)C(=O)[C@@H]2CSSC[C@H](NC(=O)[C@@H](N)Cc3c[nH]c4ccccc34)C(=O)N[C@@H](C(C)C)C(=O)N[C@@H](C)C(=O)N[C@@H](CO)C(=O)N3CCC[C@@H]3C(=O)N3CCC[C@H]3C(=O)N[C@@H](CC(C)C)C(=O)N[C@@H](CO)C(=O)N[C@@H](Cc3ccc(O)cc3)C(=O)N2)[C@@H](C)O)CCNC(=O)[C@@H]([C@H](C)O)NC(=O)[C@H](CCN)NC(=O)[C@H](CCN)NC1=O [Ex. 178] (H-WCVAS[dP]PLSYC[Sar][Dab]T[Dab][Dab][Dab][dL]L[Dab][Dab][dT]; disulfide 2-11; lactam 16-C),<1,2,0.5,8,1,4,1,0.5,–
CCCC[C@@H]1NC(=O)[C@@H]2CCCN2C(=O)[C@H]2CCCN2C(=O)[C@H](CO)NC(=O)[C@H](C)NC(=O)[C@H](C(C)(C)C)NC(=O)[C@@H](NC(=O)[C@H](Cc2c[nH]c3ccccc23)NC(=O)C(C)(C)N)CSSC[C@@H](C(=O)N[C@@H](CCN)C(=O)N[C@H](C(=O)N[C@@H](CCN)C(=O)N[C@H]2CCNC(=O)[C@H]([C@@H](C)O)NC(=O)[C@H](CCN)NC(=O)[C@H](CCN)NC(=O)[C@H](CC(C)C)NC(=O)[C@@H](Cc3ccccc3)NC(=O)[C@H](CCN)NC2=O)[C@@H](C)O)NC(=O)[C@H](Cc2ccc(O)cc2)NC(=O)[C@H](CO)NC1=O [Ex. 44] (H-[Aib]WC[Tle]AS[dP]P[Nle]SYC[Dab]T[Dab][Dab][Dab][dF]L[Dab][Dab]T; disulfide 3-12; lactam 16-C),<1,0.5,0.125,2,0.25,0.25,0.125,0.25,–
CC(C)C[C@@H]1NC(=O)[C@@H](CC(C)C)NC(=O)[C@H](CCN)NC(=O)[C@@H](NC(=O)[C@H](CCN)NC(=O)[C@@H](NC(=O)[C@H](CCN)NC(=O)CC[C@@H]2NC(=O)[C@H](CCN)NC(=O)[C@H](Cc3ccc(O)cc3)NC(=O)[C@H](CN)NC(=O)[C@H](C(C)C)NC(=O)[C@@H]3CCCN3C(=O)[C@H]3CCCN3C(=O)[C@H](CO)NC(=O)[C@H](C)NC(=O)[C@H](C(C)C)NC(=O)[C@H](CCN)NC(=O)[C@H](Cc3c[nH]c4ccccc34)NC(=O)[C@H](CCN)NC(=O)[C@@H](CCN)NC2=O)[C@@H](C)O)CCNC(=O)[C@H]([C@@H](C)O)NC(=O)[C@H](CCN)NC(=O)[C@H](CCN)NC1=O [Ex. 85] (I: cyclo(V[Dap]Y[Dab]E[dDab][Dab]W[Dab]VAS[dP]P) / II: [Dab]T[Dab][Dab][Dab][dL]L[Dab][Dab]T; amide I:5-II:N; lactam II:4-II:C),–,1,1,8,2,1,1,2,<1
CCCC[C@@H]1NC(=O)[C@@H]2CCCN2C(=O)[C@H]2CCCN2C(=O)[C@H](CO)NC(=O)[C@H](C)NC(=O)[C@H](C(C)(C)C)NC(=O)[C@H](CCN)NC(=O)[C@H](Cc2c[nH]c3ccccc23)NC(=O)[C@H](CCN)NC(=O)[C@@H](CCC(=O)N[C@@H](CCN)C(=O)N[C@H]2CCNC(=O)[C@H]([C@@H](C)O)NC(=O)[C@H](CCN)NC(=O)[C@H](CCN)NC(=O)[C@H](CC(C)C)NC(=O)[C@@H](Cc3ccccc3)NC(=O)[C@H](CCN)NC2=O)NC(=O)[C@H](CCCN)NC(=O)[C@H](CCN)NC(=O)[C@H](Cc2ccc(O)cc2)NC(=O)[C@H](CO)NC1=O [Ex. 2] (I: cyclo([Nle]SY[Dab][Orn][dE][Dab]W[Dab][Tle]AS[dP]P) / II: [Dab][Dab][Dab][dF]L[Dab][Dab]T; amide I:6-II:N; lactam II:2-II:C),–,2,0.5,4,2,0.25,1,1,1
CC(C)C[C@@H]1NC(=O)[C@@H](CC(C)C)NC(=O)[C@H](CCN)NC(=O)[C@@H](NC(=O)[C@H](CCN)NC(=O)[C@@H](NC(=O)[C@H](CCN)NC(=O)CNC(=O)[C@@H]2CSSC[C@H](NC(=O)[C@@H](N)Cc3c[nH]c4ccccc34)C(=O)N[C@@H](C(C)C)C(=O)N[C@@H](C)C(=O)N[C@@H](CO)C(=O)N[C@H](CO)C(=O)N3CCC[C@H]3C(=O)N[C@@H](CC(C)C)C(=O)N[C@@H](CO)C(=O)N[C@@H](Cc3ccc(O)cc3)C(=O)N2)[C@@H](C)O)CCNC(=O)[C@H]([C@@H](C)O)NC(=O)[C@H](CCN)NC(=O)[C@H](CCN)NC1=O [Ex. 130] (H-WCVAS[dS]PLSYCG[Dab]T[Dab][Dab][Dab][dL]L[Dab][Dab]T; disulfide 2-11; lactam 16-C),<1,0.0625,0.0625,0.125,0.25,0.25,0.0625,0.0625,–
CCCC[C@@H]1NC(=O)[C@@H]2CCCN2C(=O)[C@H]2CCCN2C(=O)[C@H](CO)NC(=O)[C@H](C)NC(=O)[C@H](C(C)(C)C)NC(=O)[C@@H](NC(=O)[C@H](Cc2c[nH]c3ccccc23)NC(=O)[C@@H](N)CCN)CSSC[C@@H](C(=O)N[C@@H](CCN)C(=O)N[C@H](C(=O)N[C@@H](CCN)C(=O)N[C@H]2CCNC(=O)[C@H]([C@@H](C)O)NC(=O)[C@H](CCN)NC(=O)[C@H](CCN)NC(=O)[C@H](CC(C)C)NC(=O)[C@@H](Cc3ccccc3)NC(=O)[C@H](CCN)NC2=O)[C@@H](C)O)NC(=O)[C@H](Cc2ccc(O)cc2)NC(=O)[C@H](CO)NC1=O [Ex. 42] (H-[Dab]WC[Tle]AS[dP]P[Nle]SYC[Dab]T[Dab][Dab][Dab][dF]L[Dab][Dab]T; disulfide 3-12; lactam 16-C),<1,0.25,0.125,2,0.25,0.25,0.25,0.25,–
